Assay results published in patent US20070202079A1, “Therapeutic compositions and methods useful in modulating protein tyrosine phosphatases” (priority 2006, published 2007).
Entries after “also recorded” stand apart in the source; their conditions may differ.

Columns and labels:
LoVo = LoVo cell growth, MTT; assay type: cell-based, human; conditions: 100 μg/ml, day 6
Protocol: NIH3T3 (Yi, et al., Blood 85, 87 (1995)), WM9 (Forsberg, et al., Proc. Nat. Acad Sci. USA 90, 393 (1993)), DU145 (Mickey, et al., Cancer Res. 37, 4049 (1977)), LoVo (Drewinko, et al., Cancer Res. 36, 467 (1976)), HEY (Buick, et al., Cancer Res. 45, 3668 (1985)), U251 (Yoshida, et al., Cancer 50, 410 (1982)), A549 (Giard, et al., J. Natl. Cancer Inst. 51, 1417 (1973)) and SK-N-SH (Helson, et al., Cancer Res. 35, 2594 (1975)) cell lines have been described and were cultured in RPMI 1640 supplemented with 10% fetal calf serum (FCS). For measurement of sodium stibogluconate effects on cell growth in vitro, cells were cultured in the absence (−) or presence (+) of various amounts of sodium stibogluconate for 6 days with viable cells quantified by MTT assays (Mosmann, J. Immunol. Methods 65, 55 (1983)). Percentages of growth inhibition by sodium stibogluconate were calculated (.+−.x%).

toxicity in nude mice = assay type: in vivo
Protocol: Nude mice bearing WM9 or DU145 xenografts were treated with IFN-alpha (500,000 U, s.c., daily), sodium stibogluconate (12 mg Sb, s.c., daily) or both. […] The dosage of sodium stibogluconate corresponds to approximately 440 mg Sb/kg body weight (average mouse body weight 27 g), substantially higher than the standard therapeutic dose of 20 mg Sb/kg and the high dose (143 mg Sb/kg) that was clinically used by accident without serious toxicity. This dose of sodium stibogluconate was based on a previous observation in a pilot study that mice could tolerate daily dose of 20 mg Sb (approximately 700-800 mg Sb/kg). An observation that the effect of sodium stibogluconate in inhibiting the growth of the cancer cell lines in vitro was dose-dependent with complete or near complete killing of the cancer cells at 100 μg Sb/ml (or […]) was also considered. […]
As discussed above, the dosage of sodium stibogluconate used for the treatment of nude mice was 12 mg Sb/mouse, s.c., daily (or approximately 440 mg/kg body weight). […] As an initial step to assess the toxicity of such a high dosage of sodium stibogluconate in nude mice, the effect of sodium stibogluconate on the viability and body weights of WM9 xenografts nude mice during the 25 day period of the study was determined.

Flag-PRL-2 = target: T1, Flag-PRL-2 (Homo sapiens, UniProt Q12974); assay: immunocomplex PTPase assay, NIH3T3 Flag-PRL-2 transfectants; assay type: cell-based, mouse
T1 construct: expressed in transfected cells; host or cells: NIH3T3 (pBabepuro, puromycin-selected)
T1 sequence (Q12974 whole entry): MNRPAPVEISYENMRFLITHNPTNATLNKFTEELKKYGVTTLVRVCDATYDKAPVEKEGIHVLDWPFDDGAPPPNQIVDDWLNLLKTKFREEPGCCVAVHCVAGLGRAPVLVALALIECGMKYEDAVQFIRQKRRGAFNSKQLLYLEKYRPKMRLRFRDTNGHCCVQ
Protocol: (§1) Immunocomplex PTPase assays were performed to assess the effects of sodium stibogluconate on intracellular PTPases. Cells were untreated or treated with sodium stibogluconate for 5 minutes, washed with fresh medium and then lysed in cold lysis buffer (50 mM Tris, pH 7.4; 150 mM NaCl; 1% NP40; 2 mM PMSF; 20 μg/ml of Aprotinin). The lysates were incubated with an anti-Flag antibody in immunoprecipitation assays. The immunocomplexes were collected with protein G sepharose beads (Pharmacia) and washed in cold lysis buffer for 4 times. […] C. for 18 hrs. 100 μL of malachite green solution (UBI) was added to each reaction prior to measurement of OD660 to quantify the amounts of free phosphate cleaved by the PTPases from the peptide substrate (Pathak et al., J. Immunol. 167, 3391 (2001)). The remaining 10% contents of individual samples were analyzed by SDS-PAGE/Western blotting to quantify the relative amounts of the phosphatase proteins. […]
(§2) The effects of sodium stibogluconate on intracellular PTPases were assessed using NIH3T3 or WM9 transfectants. […]

[1] = test system: Stat1 tyrosine phosphorylation; assay: IFN-alpha-induced Stat1 tyrosine phosphorylation, Western blotting; assay type: cell-based, human
Protocol: For induction of Stat1 tyrosine phosphorylation by IFN-alpha in the absence or presence of sodium stibogluconate, cells grown in 10% FCS RPMI 1640 medium at 37° C. were stimulated with IFN-alpha (50 u/ml) for various time points and treated with or without sodium stibogluconate for 5 minutes prior to termination by lysing the cells in cold lysis buffer (1% NP-40; 50 mM Tris, pH 7.4; 100 mM NaCl; 1 mM EDTA, 10% glycerol, 10 mM sodium molybdic acid and 4 mM AEBSF).
Cell lysates were prepared by lysing cells in cold lysis buffer for 30 min and cleared by centrifuging at 14,000 rpm at 4° C. for 15 min. For SDS-PAGE, cell lysates were mixed with equal volume of 2×SDS-PAGE sample buffer, heated at 90° C. for 5 min and separated in 10% SDS-PAGE gels. Cellular proteins in SDS-PAGE gels were transferred to nitrocellulose membrane (Schleicher & Schuell, Keene, N.H.), blocked in 5% milk, probed with antibodies and detected by using an enhanced chemiluminescence kit (ECL, Amersham, Arlington Heights, Ill.).

Flag-PRL-1 = target: T2, Flag-PRL-1 (Homo sapiens, UniProt Q93096); assay: immunocomplex PTPase assay, NIH3T3 Flag-PRL-1 transfectants; assay type: cell-based, mouse; conditions: cells treated 5 min
T2 construct: expressed in transfected cells; host or cells: WM9 human melanoma cell line (pBabepuro, puromycin-selected)
T2 sequence (Q93096 whole entry): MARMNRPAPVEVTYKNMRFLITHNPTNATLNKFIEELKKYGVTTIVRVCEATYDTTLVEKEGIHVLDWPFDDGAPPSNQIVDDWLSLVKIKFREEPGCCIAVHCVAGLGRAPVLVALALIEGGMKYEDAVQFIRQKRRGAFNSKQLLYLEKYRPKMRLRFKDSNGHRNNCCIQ
Protocol: as §1, §2

SMILES: O.O.O.O.O.O.O.O.O.O=C([O-])[C@@H]1[O][Sb]2([O-])([O][Sb]34([OH])[O][C@H]([C@H](O)CO)[C@H]([O]3)[C@H](C(=O)[O-])[O]4)[O][C@H]([C@H](O)CO)[C@@H]1[O]2.[Na+].[Na+].[Na+] [sodium stibogluconate]
- cell killing of LoVo (LoVo): near-complete cell killing
- viability and tolerance of treated mice (toxicity in nude mice; WM9 xenograft mice, 25 days, 12 mg Sb daily (440 mg Sb/kg), IFN-alpha 500,000 U): survived until the end of the study; also recorded: well tolerated with no serious side effects
- tolerated daily dose, pilot study (toxicity in nude mice; mice, approximately 700-800 mg Sb/kg): 20 mg Sb
- time required for full removal of effect on intracellular PRL-2 (Flag-PRL-2; brief treatment): at least 24 hours
- PTPase activity of immunocomplexes from treated Flag-PRL-2 transfectants (Flag-PRL-2; cells treated 5 min): lack of PTPase activity
- IFN-alpha-induced Stat1 tyrosine phosphorylation ([1]; DR cells, 10 μg/ml, 30 min post-stimulation): approximately two folds greater than control
- Stat1 tyrosine phosphorylation by drug itself ([1]; DR cells, absence of IFN-alpha): failed to induce Stat1 tyrosine phosphorylation
- IFN-alpha-induced Stat1 tyrosine phosphorylation ([1]; DU145, 5 hours post-stimulation): Enhanced Stat1 tyrosine phosphorylation
- IFN-alpha-induced Stat1 tyrosine phosphorylation ([1]; WM9, 5 hours post-stimulation): Enhanced Stat1 tyrosine phosphorylation
- IFN-alpha-induced Stat1 tyrosine phosphorylation ([1]; WM35): failed to enhance
- IFN-alpha-induced Stat1 tyrosine phosphorylation ([1]; WiT49-N1): failed to enhance
- PTPase activity of immunocomplexes from treated Flag-PRL-1 transfectants (Flag-PRL-1): little PTPase activities
